Active and inactive are the calls of the source.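 How the source made its calls: active means compounds whose fitted concentration for half of maximal LXR reporter activation EC50 is 10 µM or lower; inactive means the rest.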
Tested on: HEK293 Gal4-LXR tk-luc reporter, luminescence, 24 h
Assay: LXR agonists, Gal4 luciferase reporter, dose response, counter-screen for ssDAF-12 agonist project, cell-based, luminescence, HEK293, S. stercoralis campaign (AID 720737)

For `CC(C)(C)C1CCC(=NNC(=S)Nc2cccnc2)CC1` (stereo unspecified), the EC50 was > 67.5 µM (inactive).

From PubChem BioAssay AID720737 (The Scripps Research Institute Molecular Screening Center, 2013)
